Experimental data from US4574117A, “Stabilization of phenylalanine ammonia-lyase in a bioreactor using reducing agents” (Genex Corporation, priority 1984, dated 1986).

Tests used:
[1] = target: T1, phenylalanine ammonia-lyase (PAL) (Rhodotorula mucilaginosa, UniProt P10248); test: Example 1: L-phenylalanine bioreaction with PAL-containing cells, 2-mercaptoethanol at 100, 500 and 1000 mg/liter; format: biochemical, Rhodotorula rubra; details: after 15 hours, 35° C., pH 10.5; for L-Phenylalanine Produced: ammonium sulfate
T1 construct: endogenous in cells; host or cells: Rhodotorula rubra cells (aerobic fermentation, whole cells harvested by centrifugation)
T1 sequence (P10248 1-713): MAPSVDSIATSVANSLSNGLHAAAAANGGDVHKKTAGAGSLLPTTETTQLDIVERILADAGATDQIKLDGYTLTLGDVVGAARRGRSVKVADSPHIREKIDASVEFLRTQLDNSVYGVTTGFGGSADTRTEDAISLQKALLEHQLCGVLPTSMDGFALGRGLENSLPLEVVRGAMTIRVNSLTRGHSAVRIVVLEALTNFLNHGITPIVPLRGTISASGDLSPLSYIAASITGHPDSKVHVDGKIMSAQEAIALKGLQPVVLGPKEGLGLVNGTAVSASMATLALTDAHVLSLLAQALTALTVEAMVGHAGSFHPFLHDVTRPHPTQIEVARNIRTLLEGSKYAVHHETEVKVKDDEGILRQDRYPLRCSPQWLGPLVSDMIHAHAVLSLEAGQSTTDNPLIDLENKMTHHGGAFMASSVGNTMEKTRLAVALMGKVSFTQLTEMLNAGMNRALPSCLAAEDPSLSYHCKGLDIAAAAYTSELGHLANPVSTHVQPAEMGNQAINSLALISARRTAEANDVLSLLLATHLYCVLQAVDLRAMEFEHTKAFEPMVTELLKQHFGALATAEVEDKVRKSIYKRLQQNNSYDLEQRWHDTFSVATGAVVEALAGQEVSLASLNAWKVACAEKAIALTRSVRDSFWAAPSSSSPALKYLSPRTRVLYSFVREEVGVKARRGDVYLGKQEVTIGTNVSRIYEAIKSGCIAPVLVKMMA
Text: Microbial cells containing a high level of activity of phenylalanine ammonia-lyase (PAL) were produced by aerobic fermentation. A 14 liter fermentor containing 10 liters of nutrient medium was inoculated with a seed culture of Rhodotorula rubra. The nutrient medium consisted of: soy peptone 2.7%; casein hydrolysate (Sheffield NZ-Amine) 1.35%; and corn steep liquor 0.18%. The fermentor contents were aerated and agitated, and the pH was maintained at 6.0 by periodic additions of ammonia water or sulfuric acid. During the fermentation, the PAL activity of the cells was monitored, and when the PAL activity reached a maximum (approximately 22 hours after inoculation), the fermentation was stopped by shutting off the aeration and agitation. The vessel was de-aerated by sparging with nitrogen gas. The microbial cells were separated from the fermentation broth by centrifugation, and stored at 4° C. Four 14 liter vessels were each filled with 13 liters of a substrate solution containing: ammonia, 4 mole/liter; ammonium sulfate, 100 gram/liter; and trans-cinnamic acid, 10 gram/liter. The pH of the solution was 10.5, and the temperature was maintained at 35° C. The vessels were deaerated by sparging with nitrogen gas, and 2-mercaptoethanol was added to three of the vessels in amounts of 100, 500, and 1000 mg/liter. PAL-containing microbial cells were then added to all four vessels in the amount of 1.35 gram (dry basis) per liter. The vessels were agitated for one minute every three hours. Supplemental trans-cinnamic acid was added to the vessels in the amount of 2.5 gram/liter at 3, 6, 9, and 12 hours after the addition of cells. After 15 hours, the concentration of L-phenylalanine in the reaction mixture was measured, and the PAL activity of the cells was determined. The results, which are shown in Table I, indicate that the stability of PAL was enhanced by the reducing agent, with the result that a greater quantity of L-phenylanine was produced. The optimum concentration for 2-mercaptoethanol is between 100 and 1000 mg/liter.

[2] = target: T1, phenylalanine ammonia-lyase (PAL); test: Example 2: bioreaction in ammonium carbonate or ammonium sulfate substrate solution with 2-mercaptoethanol; format: biochemical, Rhodotorula rubra; details: 600 mg/l 2-mercaptoethanol, after 15 hours
Description: Four 14 liter vessels were each filled with 13 liters of substrate solution. In two of the vessels, the substrate solution contained: ammonia, 5 mole/liter; ammonium carbonate, 120 gram/liter; and trans-cinnamic acid, 10 gram/liter. The other two vessels contained a substrate solution composed of: ammonia, 4.2 mole/liter; ammonium sulfate, 75 gram/liter; and trans-cinnamic acid, 10 gram/liter. The pH in all four vessels was 10.5, and the temperature was maintained at 35° C. All four vessels were de-aerated by sparging with nitrogen gas. Finally, one vessel of each pair had 600 mg/liter of 2-mercaptoethanol added. The reaction was started by adding PAL-containing microbial cells to each of the four vessels in the amount of 1.7 gram (dry basis) per liter. (The microbial cells were produced by the method of Example 1.) The vessels were agitated for one minute every three hours. Supplemental trans-cinnamic acid was added to all four vessels in the amount of 2.5 gram/liter at 3, 6, 9, and 12 hours after the addition of cells. After 15 hours, the concentration of L-phenylalanine in the reaction mixtures was measured, and the PAL activity of the cells was determined.

[3] = target: T1, phenylalanine ammonia-lyase (PAL); test: Example 3: optimum concentration of 2-mercaptoethanol, five vessels; format: biochemical, Rhodotorula rubra; details: for L-Phenylalanine Produced / PAL Activity (% of Activity): after 24 hours
Description: The optimum concentration of 2-mercaptoethanol was determined by carrying out reactions in five vessels with varying concentrations of 2-mercaptoethanol. The procedures used were the same as those described in Examples 1 and 2, with the following modifications. The nutrient medium for the fermentation was composed of: yeast extract (Amber Laboratories, Amberex 1003) 1.35%; corn steep liquor 0.18%; and L-phenylalanine 2.7%. The substrate solution for L-phenylalanine production contained: ammonia 5.1 mole/liter; ammonium sulfate 120 gram/liter; and cinnamic acid 10 gram/liter, with 2.5 gram/liter added at 3, 6, 9, and 12 hours after the addition of cells. The quantity of cells added to each of the vessels was 1.6 gram (dry basis) per liter. After 24 hours, the L-phenylalanine concentration in the reaction mixture was measured, and the PAL activity of the cells was determined.

[4] = target: T1, phenylalanine ammonia-lyase (PAL); test: Example 4: 300 gallon reactor bioreaction with 2-mercaptoethanol; format: biochemical, Rhodotorula rubra; details: 404 ml 2-mercaptoethanol in 900 liters substrate solution, after 53.5 hours, 30° C.
Description: PAL-containing microbial cells were cultivated in three 250-liter fermentors, each containing 163 liters of nutrient medium. The medium was composed of: yeast extract (Amber Laboratories, Amberex 1003) 1.38%; beet molasses 4%; diammonium phosphate 0.18%; and L-phenylalanine 0.92%. The fermentor was inoculated with a shake flask culture of Rhodotorula rubra. The fermentation was carried out at 30° C. with aeration and agitation. The pH was maintained at 6.0 by periodic additions of ammonia water or sulfuric acid. During the fermentation, the PAL activity of the microbial cells was monitored, and when the PAL activity reached a maximum, at 28-30 hours after inoculation, the fermentations were stopped by shutting off the aeration and agitation. The vessels were de-aerated by sparging with nitrogen gas. Microbial cells were harvested by means of a Westfalia disc-bowl centrifuge. The combined yield of cells from all three fermentators was 5.04 kg (dry basis). Substrate solution for L-phenylalanine production was prepared as follows. […] The trans-cinnamic acid concentration in the reaction mixture was monitored at intervals of approximately two hours, and supplemental trans-cinnamic acid was added whenever necessary, to maintain a concentration of between 10 and 18 gram/liter. […]

PAL = details: cited from earlier work

Q: Which results are given for `OCCS` [2-mercaptoethanol]?
A: PAL Activty (% of Initial) ([1]; 100 mg/l 2-mercaptoethanol): 31.2 % of Initial; L-Phenylalanine Produced ([1]; 100 mg/l 2-mercaptoethanol): 7.34 gm/l; PAL Activty (% of Initial) ([1]; 500 mg/l 2-mercaptoethanol): 39.4 % of Initial; L-Phenylalanine Produced ([1]; 500 mg/l 2-mercaptoethanol): 9.26 gm/l; PAL Activty (% of Initial) ([1]; 1,000 mg/l 2-mercaptoethanol): 35.9 % of Initial; L-Phenylalanine Produced ([1]; 1,000 mg/l 2-mercaptoethanol): 8.54 gm/l; L-Phenylalanine Produced ([2]; ammonium carbonate): 12.9 gm/l; PAL Activity (% of Initial) ([2]; ammonium carbonate): 46.6 % of Initial; L-Phenylalanine Produced ([2]; ammonium sulfate): 10.8 gm/l; PAL Activity (% of Initial) ([2]; ammonium sulfate): 38.7 % of Initial; L-Phenylalanine Produced ([3]; 300 mg/l 2-mercaptoethanol): 12.6 gram/l; PAL Activity (% of Activity) ([3]; 300 mg/l 2-mercaptoethanol): 27.5 % of Activity; L-Phenylalanine Produced ([3]; 400 mg/l 2-mercaptoethanol): 14.6 gram/l; PAL Activity (% of Activity) ([3]; 400 mg/l 2-mercaptoethanol): 32.4 % of Activity; L-Phenylalanine Produced ([3]; 500 mg/l 2-mercaptoethanol): 15.4 gram/l; PAL Activity (% of Activity) ([3]; 500 mg/l 2-mercaptoethanol): 34.2 % of Activity; L-Phenylalanine Produced ([3]; 600 mg/l 2-mercaptoethanol): 14.8 gram/l; PAL Activity (% of Activity) ([3]; 600 mg/l 2-mercaptoethanol): 32.7 % of Activity; L-Phenylalanine Produced ([3]; 800 mg/l 2-mercaptoethanol): 14.6 gram/l; PAL Activity (% of Activity) ([3]; 800 mg/l 2-mercaptoethanol): 31.7 % of Activity; optimum concentration of 2-mercaptoethanol ([3]; Example 3 conditions): approximately 500 mg/liter; PAL activity of the cells in the reactor, of the initial activity [4]: 27%; L-phenylalanine in the reaction mixture ([4]; ammonium carbonate): 33.3 gram/liter

Q: For `CC[C@H](C)[C@H](N)C(=O)O` [L-isoleucine, reference compound], which “effect on PAL stability” value (PAL; extended the useful period of activity of the enzyme) is on record?
A: Its value is “stabilizing effect”.

Q: With `O=C(O)/C=C/c1ccccc1` [t-cinnamic acid] as the compound, how does the “rate of conversion of L-phenylalanine relative to the maximum rate” value (PAL; t-cinnamic acid 150 mM (substrate inhibition)) read?
A: Its value is “one-half”.
